# Test results reported in patent US20250199015A1, “CYCLIN-DEPENDENT KINASE 2 INHIBITORS FOR MEDICAL TREATMENT” (INCYCLIX BIO, LLC, priority 2022, published 2025).
# Where “and” joins values, the source holds several entries; their conditions need not be identical. Equal entries are not always repeated. Where two headings read alike, the source gives them in different places.
# Columns and labels:
# BCRP = molecular target: T1, BCRP (Homo sapiens, UniProt Q9UNQ0); assay: ABC transporter inhibition, inside-out membrane vesicles; format: in vitro ADME
# T1 construct: expressed in transfected cells; inside-out membrane vesicles
# Experimental: The reaction was initiated with the addition of ATP or AMP to the solution and following the incubation time, the reaction was stopped by the addition of 200 μL of ice-cold washing buffer and immediate filtration via glass fiber filters mounted to a 96-well plate (filter plate). The filters were washed, dried, and the amount of substrate inside the filtered vesicles was determined by liquid scintillation counting. E3S (1 μM; Sigma-Aldrich E0251) for BCRP was used as positive control substrates.
# [1] = test system: CCNE1, CCNE2 in Hs68 cells; assay: Western blot cell cycle proteins; format: cell-based, human; conditions: 24 hours
# Experimental: The H69 and H526 human lung carcinoma cell lines were grown in RPMI-1640/1× Glutamax/10% fetal bovine serum while the Hs68 Normal foreskin fibroblast cell line was grown in DMEM-high glucose/1× Glutamax/10% fetal bovine serum. […] Cells were collected by washing each well twice with cold PBS, then scraping cells in the presence of 150 μL cold RIPA with protease and phosphatase inhibitors. Lysates were clarified by centrifugation at 14,000×g for 10 min at 4° C. and supernatants transferred to clean tubes. A BCA assay was performed to determine the protein concentration of each lysate. A total of 30 μg of protein was mixed with sample buffer and reducing agent before being run on a 4-12% SDS-PAGE. Protein was transferred to a nitrocellulose membrane and blocked with LI-COR blocking buffer for 1 hour. Membranes were incubated overnight in primary antibody at 4° C. Following 3 washes with TBS-T, membranes were incubated for 45 minutes in LI-COR secondary antibodies. Following 2 washes in TBS-T, and one TBS wash, membranes were scanned using a LI-COR OdysseyCLx. Image studio was used for image analysis.
# [2] = test system: HCC-1569 cell loaded Hollow Fibers; assay: Mouse hollow fiber assay (CellTiter Glo); format: in vivo, mice; conditions: 75, 100, 150 mg/kg twice daily, Day 16
# Experimental: The mouse hollow fiber assay was conducted using three tumor cell lines, OVCAR-3 (ovarian), MKN-1 (gastric), and HCC-1569 (breast), 1e7 OVCAR-3, 5e6 MKN-1, and 1e7 HCC-1569 cells were loaded into Hollow Fibers, placed in cell culture dishes containing RPMI-1640 with 20% FCS and 1% penicillin/streptomycin, and were equilibrated in an incubator at 37 C, 5% CO2 overnight. On Day 0, three fibers were implanted in two different compartments: subcutaneous and intraperitoneal of twenty-four female NMRI nude mice ages 4-5 weeks. […] Female NMRI nude mice were implanted both subcutaneously and intraperitoneally with HCC-1569, MKN1, and OVCAR3 tumor cell-loaded Hollow Fibers on Day 0. The number of animals alive on Day 0 (implantation) and on Day 16 (necropsy) in each group is shown in parentheses in the legend.
# HCC-1569 cell loaded Hollow Fibers were implanted both subcutaneously and intraperitoneally into female NMRI nude mice on Day 0. Hollow Fibers were collected during necropsy on Day 16 and analyzed using a CellTiter Glo® assay.
# MATE1 = MATE1 (Homo sapiens, UniProt Q96FL8); assay: SLC transporter inhibition in HEK293 cells
# Plasma protein binding = format: in vitro ADME; conditions: across all species tested, read-out: bound to plasma proteins
# CYP1A2 transcription = assay: CYP induction (transcription); format: in vitro ADME; conditions: up to 3 μM, 24 hours
# [3] = test system: MMTV-rtTA/tetO-HER2 tumors; assay: Abemaciclib-resistant HER2-overexpressing breast cancer mouse model; format: in vivo, mice; conditions: Compound I 50 mg/kg BID + abemaciclib 50 mg/kg BID, out to day 38
# Experimental: Breast cancer model mice overexpressing HER2 (MMTV-rtTA/tetO-HER2) were treated with abemaciclib until resistance to treatment was observed. […] The test agents were delivered at 5 mL/kg by oral gavage.
# human OATP1B3 = molecular target: T2, human OATP1B3 (Homo sapiens, UniProt Q9NPD5); assay: SLC transporter inhibition in HEK293 cells; format: in vitro ADME
# T2 construct: expressed in transfected cells; host or cells: HEK293
# T2 sequence (Q9NPD5 1-702): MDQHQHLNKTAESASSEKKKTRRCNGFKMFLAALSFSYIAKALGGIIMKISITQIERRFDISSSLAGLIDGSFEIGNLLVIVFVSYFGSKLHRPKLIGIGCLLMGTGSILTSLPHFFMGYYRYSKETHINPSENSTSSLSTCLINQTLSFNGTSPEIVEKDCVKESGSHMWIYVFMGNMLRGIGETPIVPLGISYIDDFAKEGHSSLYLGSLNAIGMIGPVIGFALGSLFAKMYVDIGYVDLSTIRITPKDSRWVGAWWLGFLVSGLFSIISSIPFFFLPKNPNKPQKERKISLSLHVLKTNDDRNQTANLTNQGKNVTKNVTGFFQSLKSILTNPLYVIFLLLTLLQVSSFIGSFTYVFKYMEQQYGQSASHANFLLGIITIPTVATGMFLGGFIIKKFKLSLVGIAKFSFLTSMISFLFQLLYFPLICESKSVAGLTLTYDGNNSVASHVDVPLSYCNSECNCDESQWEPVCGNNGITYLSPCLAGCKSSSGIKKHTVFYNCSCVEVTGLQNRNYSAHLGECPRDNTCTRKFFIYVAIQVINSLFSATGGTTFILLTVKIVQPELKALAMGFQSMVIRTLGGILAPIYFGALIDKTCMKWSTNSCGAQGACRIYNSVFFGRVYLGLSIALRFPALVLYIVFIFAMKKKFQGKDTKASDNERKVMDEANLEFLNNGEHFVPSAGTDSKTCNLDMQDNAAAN
# CDK2/Cyclin E (CDK2/E) = CDK2/Cyclin E (CDK2/E) (Homo sapiens, UniProt P24941); assay: Caliper microfluidic kinase assay (Nanosyn); format: biochemical
# Experimental: Kinase phosphorylation assays were performed using a caliper technology microfluidics platform (Caliper Assay Platform). With this system, the target enzyme is incubated with fluorescently labeled substrate and test compounds in a standardized reaction mixture in 384 well plates. Upon termination of the reaction, samples are introduced onto microfluidic chips. The samples migrate through channels in the chips and product and substrate are separated based on the difference in their charge and mass (electrophoretic mobility shift). Enzyme activity is measured by direct comparison of the fluorescence in the product and substrate peaks.
# Protein kinase activity was measured against multiple CDKs and their binding partners: CDK1/Cyclin B (CDK1/B), CDK2/Cyclin A (CDK2/A), and CDK2/Cyclin E (CDK2/E), CDK3/Cyclin E (CDK3/E), CDK4/Cyclin D1 (CDK4/D1), CDK6/Cyclin D3 (CDK6/D3), CDK5/p35 (CDK5/p35), CDK7/Cyclin H (CDK7/H), CDK9/Cyclin T1 (CDK9/T). Test compounds were diluted in 100% DMSO using 3-fold dilution steps. […] Compounds were tested in a single well for each dilution, and the final concentration of DMSO in all assays was kept at 1%.
# MATE2-K = MATE2-K (Homo sapiens, UniProt Q86VL8); assay: SLC transporter inhibition in HEK293 cells
# Chain of MATE2-K (Q86VL8 1-566 isoform Q86VL8-3): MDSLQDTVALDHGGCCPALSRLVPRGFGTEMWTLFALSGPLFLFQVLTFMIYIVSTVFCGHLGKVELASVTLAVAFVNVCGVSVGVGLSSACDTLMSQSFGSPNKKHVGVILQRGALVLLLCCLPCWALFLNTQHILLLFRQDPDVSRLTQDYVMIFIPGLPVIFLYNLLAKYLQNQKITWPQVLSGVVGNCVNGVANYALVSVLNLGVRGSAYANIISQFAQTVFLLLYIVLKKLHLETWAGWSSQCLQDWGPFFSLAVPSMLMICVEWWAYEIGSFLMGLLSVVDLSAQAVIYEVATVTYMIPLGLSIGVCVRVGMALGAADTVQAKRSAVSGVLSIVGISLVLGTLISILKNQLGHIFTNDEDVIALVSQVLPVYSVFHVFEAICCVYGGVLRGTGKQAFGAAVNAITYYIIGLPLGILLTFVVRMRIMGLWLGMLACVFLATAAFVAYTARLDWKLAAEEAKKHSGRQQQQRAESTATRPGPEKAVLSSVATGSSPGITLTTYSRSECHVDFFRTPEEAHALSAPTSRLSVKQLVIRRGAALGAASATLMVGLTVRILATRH
# Chain of MATE1 (Q96FL8 whole entry): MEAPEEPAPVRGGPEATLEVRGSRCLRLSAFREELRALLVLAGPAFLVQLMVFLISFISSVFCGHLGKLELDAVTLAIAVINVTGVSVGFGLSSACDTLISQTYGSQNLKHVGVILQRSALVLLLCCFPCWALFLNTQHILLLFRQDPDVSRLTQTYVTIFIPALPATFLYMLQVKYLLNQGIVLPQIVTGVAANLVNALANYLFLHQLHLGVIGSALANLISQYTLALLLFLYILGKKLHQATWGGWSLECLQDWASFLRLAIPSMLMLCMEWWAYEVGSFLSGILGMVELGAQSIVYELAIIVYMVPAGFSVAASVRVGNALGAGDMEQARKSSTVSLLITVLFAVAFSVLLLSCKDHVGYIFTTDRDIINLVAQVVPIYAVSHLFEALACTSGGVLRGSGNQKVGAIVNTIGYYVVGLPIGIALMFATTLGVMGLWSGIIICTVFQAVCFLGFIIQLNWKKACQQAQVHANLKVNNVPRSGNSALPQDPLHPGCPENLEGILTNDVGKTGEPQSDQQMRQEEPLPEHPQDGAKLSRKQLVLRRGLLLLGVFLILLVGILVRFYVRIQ
# T1 sequence (Q9UNQ0 whole entry): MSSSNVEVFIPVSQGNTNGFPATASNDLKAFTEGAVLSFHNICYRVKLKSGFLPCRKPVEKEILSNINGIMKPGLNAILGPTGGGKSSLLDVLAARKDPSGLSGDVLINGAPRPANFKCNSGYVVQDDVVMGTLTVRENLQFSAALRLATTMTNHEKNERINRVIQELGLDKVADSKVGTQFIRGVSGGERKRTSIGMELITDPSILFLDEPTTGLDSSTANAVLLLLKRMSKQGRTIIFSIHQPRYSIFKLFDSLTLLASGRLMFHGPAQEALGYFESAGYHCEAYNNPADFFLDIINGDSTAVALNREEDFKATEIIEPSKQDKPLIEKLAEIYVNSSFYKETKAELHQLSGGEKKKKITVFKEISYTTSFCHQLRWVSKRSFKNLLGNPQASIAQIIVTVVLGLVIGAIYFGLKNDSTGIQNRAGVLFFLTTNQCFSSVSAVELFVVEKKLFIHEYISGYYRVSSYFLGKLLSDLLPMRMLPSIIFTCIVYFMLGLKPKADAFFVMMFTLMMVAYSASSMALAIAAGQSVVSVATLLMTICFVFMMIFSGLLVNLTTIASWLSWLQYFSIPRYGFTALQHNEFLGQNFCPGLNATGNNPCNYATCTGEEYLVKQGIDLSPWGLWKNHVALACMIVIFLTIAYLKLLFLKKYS
smiles,measurement,setting,value
NS(=O)(=O)c1ccc(Nc2ncc3cc4n(c3n2)C2(CCCCC2)C(=O)NN4)cc1 [Compound I],IC50,"BCRP; BCRP, inside-out membrane vesicles",422 nM
same,IC50,"BCRP; human, inside-out membrane vesicles from cells overexpressing BCRP, probe E3S (1 μM)",422 nM
same,"cyclin E (CCNE1, CCNE2) levels",[1],"increase of cyclin E (CCNE1, CCNE2) amplification"
same,tumor bioluminescence signal (CellTiter Glo) of Hollow Fibers,[2],significant reduction
same,IC50,MATE1; MATE1 IC50,13300 nM
same,inhibition at 20 μM,"MATE1; human, HEK293 cells expressing MATE1, probe metformin (10 μM)",62%
same,fraction unbound,Plasma protein binding,< 0.056
same,induction of CYP1A2 transcription,CYP1A2 transcription,no observed induction
same,tumor growth,[3],substantially reduced tumor growth relative to either agent administered alone
same,Maximum Percent inhibition,"human OATP1B3; OATP1B3, HEK293 cells",91%
same,IC50,"human OATP1B3; OATP1B3, HEK293 cells, read-out: IC50",6220 nM
same,IC50,human OATP1B3; read-out: OATP1B3 IC50,6220 nM
same,IC50,"CDK2/Cyclin E (CDK2/E); 12-point dose-response, 1 μM to 0.0056 nM, read-out: IC50 against CDK2/E",0.6 nM and 0.56 nM
same,inhibition compared with other CDK/cyclin combinations,CDK2/Cyclin E (CDK2/E); FIG. 1A panel,greatest inhibition of CDK2/E and CDK2/A
same,IC50,MATE2-K,740 nM
same,Maximum Percent inhibition,"MATE2-K; MATE2-K, HEK293 cells",69%
same,IC50,MATE2-K; human,740 nM
